Here are results for 10 compounds from patent US5324724A (priority 1990, dated 1994).

Test [1] concerns the target muscarinic receptors. The experiment in a line: Displacement of muscarinic agonist 3H-Oxotremorine-M (3H-OXO-M) binding, cerebral cortex membranes. Details: species or system Hooded Lister rats. Particulars: rat cerebral cortex; 2 nM 3H-OXO-M; 37° C., 30 min; E3 as hydrochloride salt, all others as oxalate salts.
Test [2] deals with muscarinic receptors. In kind it is binding, Hooded Lister rats. Particulars: rat cerebral cortex; 0.27 nM 3H-QNB; 37° C., 30 min; E3 as hydrochloride salt, all others as oxalate salts.

Like-named read-outs stand apart in the source and are kept apart here.

With `Nc1nncc(C2CN3CCC2C3)n1` (racemic) [E9a & E9b, (±) exo and endo 3-(3-Amino-1,2,4-triazin-5-yl) -1-azabicyclo[2.2.1]heptane], the figures for the IC50 at muscarinic receptors [1] and on muscarinic receptors [2] were 1.1 nM and 320 nM, respectively.

For the compound `Cc1nncc(C23CCCN(CC2)C3)n1` (racemic) [Example E1, (±) 5-(3-Methyl-l,2,4-triazin-5-yl)-1-azabicyclo[3.2.1]octane], the IC50 (usually the midpoint of a concentration-inhibition curve) at muscarinic receptors [1] came out at 33 nM; at muscarinic receptors [2], 1800 nM.

Take `Nc1nncc(C23CCCN(CC2)C3)n1` (racemic) [Example E2, (±) 5-(3-Amino-l,2,4-triazin-5-yl)-1-azabicyclo[3.2.1]octane]: the figures for the IC50 on muscarinic receptors [1] and at muscarinic receptors [2] were 5 nM and 1110 nM, respectively.

On to `Nc1nncc(C2CN3CCC2CC3)n1` (racemic) [Example E6, (±)3-(3-Amino-1,2,4-triazin-5-yl)-1-azabicyclo[2.2.2]octane], for which the half-inhibitory concentration (IC50) is 11 nM on muscarinic receptors [1] and 2370 nM at muscarinic receptors [2].

Take `Cc1nncc(C2CN3CCC2CC3)n1` (racemic) [Example E7, (±) 3-(3-Methyl-1,2,4-triazin-5-yl)-1-azabicyclo[2.2.2]octane]: the IC50 turned out to be 3.3 nM on muscarinic receptors [1] and 175 nM at muscarinic receptors [2].

With `Cc1nncc([C@@H]2CN3CC[C@@H]2C3)n1` (relative stereo) [Example E8a, 3-(3-Methyl-1,2,4-triazin-5-yl) -1-azabicyclo[2.2.1]heptane], the half-inhibitory concentration (IC50) stood at 3.1 nM at muscarinic receptors [1] and 255 nM on muscarinic receptors [2].

For the compound `CCc1nncc([C@@H]2CN3CC[C@@H]2C3)n1` (relative stereo) [Example E10, (±) exo and endo 3-(3-Ethyl-1,2,4-triazin-5-yl) -1-azabicyclo[2.2.1]heptane], the IC50 at muscarinic receptors [1] is 68 nM; at muscarinic receptors [2], 240 nM.

For the compound `Cc1nncc(C23CCN(CC2)C3)n1` [Example E3, 4-(3-Methyl-1,2,4-triazin-5-yl)-1-azabicyclo[2.2.1]heptane], the IC50 on muscarinic receptors [1] came out at 70 nM; on muscarinic receptors [2] it was 4400 nM.

For the compound `Nc1nncc(C23CCN(CC2)C3)n1` [Example E4, 4-(3-Amino-1,2,4-triazin-5-yl)-1-azabicyclo[2.2.1]heptane], the half-maximal inhibitory concentration (IC50) is 4 nM at muscarinic receptors [1] and 1490 nM at muscarinic receptors [2].

Turning to `COc1nncc(C23CCN(CC2)C3)n1` [Example E5, 4-(3-Methoxy-1,2,4-triazin-5-yl)-1-azabicyclo[2.2.1]heptane], the IC50 on muscarinic receptors [1] was determined as 1100 nM; at muscarinic receptors [2], 14000 nM.
